{"source": "paper PMC10202051", "about": "“Molecular basis of differential HLA class I-restricted T cell recognition of a highly networked HIV peptide” (Nature Communications, 2023)", "system": "autologous B cells lysed by CTL Clone 3", "test": "Chromium release assay with QW9-B53 specific CTL clone C3", "assay_type": "cell-based, human", "conditions": "effector/target 1:1, technical replicate"}
{"sequence": "QATQEVKNW [QW9_S3T]", "values": [{"measurement": "lysis of autologous B cells", "setting": "experiment-1", "result": 6.79}, {"measurement": "lysis of autologous B cells", "setting": "experiment-2", "result": 6.64}, {"measurement": "lysis of autologous B cells", "setting": "experiment-3", "result": 6.63}, {"measurement": "lysis of autologous B cells", "setting": "experiment-4", "result": 6.38}, {"measurement": "lysis of autologous B cells", "setting": "experiment-5", "result": 6.72}, {"measurement": "lysis of autologous B cells", "setting": "experiment-6", "result": 7.02}, {"measurement": "lysis of autologous B cells", "setting": "experiment-7", "result": 6.68}, {"measurement": "lysis of autologous B cells", "setting": "experiment-8", "result": 6.3}]}
